Measurements taken from ChEMBL document CHEMBL1933060, “Discovery of novel 5-alkynyl-4-anilinopyrimidines as potent, orally active dual inhibitors of EGFR and Her-2 tyrosine kinases” (Bioorg Med Chem Lett, 2012).
pIC50: −log10 of the molar value. Calls of active or inactive are those of the source. No cut-off for these calls is given here.

What was measured:
[1] = molecular target: Epidermal growth factor receptor (Homo sapiens, UniProt P00533); experiment: Inhibition of EGFR by time-resolved fluorescence assay
Sequence of Epidermal growth factor receptor (P00533 whole entry): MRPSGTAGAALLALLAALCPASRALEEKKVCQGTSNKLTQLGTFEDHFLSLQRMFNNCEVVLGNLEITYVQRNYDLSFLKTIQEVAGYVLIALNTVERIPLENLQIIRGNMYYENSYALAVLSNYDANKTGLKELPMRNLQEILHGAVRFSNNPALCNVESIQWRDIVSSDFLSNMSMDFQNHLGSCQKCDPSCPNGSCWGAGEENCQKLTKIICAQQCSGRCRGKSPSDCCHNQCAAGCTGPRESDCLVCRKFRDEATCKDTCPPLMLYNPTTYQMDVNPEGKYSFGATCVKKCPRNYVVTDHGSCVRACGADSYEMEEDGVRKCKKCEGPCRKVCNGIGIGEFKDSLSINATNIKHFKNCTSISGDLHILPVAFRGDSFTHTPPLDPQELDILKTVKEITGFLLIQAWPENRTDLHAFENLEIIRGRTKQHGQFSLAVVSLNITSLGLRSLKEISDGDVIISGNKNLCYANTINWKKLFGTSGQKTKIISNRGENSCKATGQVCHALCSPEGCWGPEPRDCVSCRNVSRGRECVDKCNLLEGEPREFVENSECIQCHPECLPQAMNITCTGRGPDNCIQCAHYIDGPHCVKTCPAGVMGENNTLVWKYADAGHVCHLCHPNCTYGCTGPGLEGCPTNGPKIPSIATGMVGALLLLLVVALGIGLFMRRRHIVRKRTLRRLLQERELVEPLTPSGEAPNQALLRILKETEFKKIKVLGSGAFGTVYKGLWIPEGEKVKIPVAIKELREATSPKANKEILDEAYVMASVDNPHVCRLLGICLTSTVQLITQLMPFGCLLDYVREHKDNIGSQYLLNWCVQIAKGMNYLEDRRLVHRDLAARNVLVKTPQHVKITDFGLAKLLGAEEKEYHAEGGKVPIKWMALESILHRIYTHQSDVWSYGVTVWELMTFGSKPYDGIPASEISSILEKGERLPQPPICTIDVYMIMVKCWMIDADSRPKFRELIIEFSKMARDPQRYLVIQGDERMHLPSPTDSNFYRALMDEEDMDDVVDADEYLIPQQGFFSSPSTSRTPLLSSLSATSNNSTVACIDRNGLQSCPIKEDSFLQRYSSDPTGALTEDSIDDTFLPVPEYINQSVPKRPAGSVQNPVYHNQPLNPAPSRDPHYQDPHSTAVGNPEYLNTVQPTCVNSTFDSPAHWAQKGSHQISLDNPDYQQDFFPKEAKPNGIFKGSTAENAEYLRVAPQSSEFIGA

[2] = molecular target: Receptor tyrosine-protein kinase erbB-2 (Homo sapiens, UniProt P04626); experiment: Inhibition of Her-2 by time-resolved fluorescence assay
Sequence of Receptor tyrosine-protein kinase erbB-2 (P04626 whole entry): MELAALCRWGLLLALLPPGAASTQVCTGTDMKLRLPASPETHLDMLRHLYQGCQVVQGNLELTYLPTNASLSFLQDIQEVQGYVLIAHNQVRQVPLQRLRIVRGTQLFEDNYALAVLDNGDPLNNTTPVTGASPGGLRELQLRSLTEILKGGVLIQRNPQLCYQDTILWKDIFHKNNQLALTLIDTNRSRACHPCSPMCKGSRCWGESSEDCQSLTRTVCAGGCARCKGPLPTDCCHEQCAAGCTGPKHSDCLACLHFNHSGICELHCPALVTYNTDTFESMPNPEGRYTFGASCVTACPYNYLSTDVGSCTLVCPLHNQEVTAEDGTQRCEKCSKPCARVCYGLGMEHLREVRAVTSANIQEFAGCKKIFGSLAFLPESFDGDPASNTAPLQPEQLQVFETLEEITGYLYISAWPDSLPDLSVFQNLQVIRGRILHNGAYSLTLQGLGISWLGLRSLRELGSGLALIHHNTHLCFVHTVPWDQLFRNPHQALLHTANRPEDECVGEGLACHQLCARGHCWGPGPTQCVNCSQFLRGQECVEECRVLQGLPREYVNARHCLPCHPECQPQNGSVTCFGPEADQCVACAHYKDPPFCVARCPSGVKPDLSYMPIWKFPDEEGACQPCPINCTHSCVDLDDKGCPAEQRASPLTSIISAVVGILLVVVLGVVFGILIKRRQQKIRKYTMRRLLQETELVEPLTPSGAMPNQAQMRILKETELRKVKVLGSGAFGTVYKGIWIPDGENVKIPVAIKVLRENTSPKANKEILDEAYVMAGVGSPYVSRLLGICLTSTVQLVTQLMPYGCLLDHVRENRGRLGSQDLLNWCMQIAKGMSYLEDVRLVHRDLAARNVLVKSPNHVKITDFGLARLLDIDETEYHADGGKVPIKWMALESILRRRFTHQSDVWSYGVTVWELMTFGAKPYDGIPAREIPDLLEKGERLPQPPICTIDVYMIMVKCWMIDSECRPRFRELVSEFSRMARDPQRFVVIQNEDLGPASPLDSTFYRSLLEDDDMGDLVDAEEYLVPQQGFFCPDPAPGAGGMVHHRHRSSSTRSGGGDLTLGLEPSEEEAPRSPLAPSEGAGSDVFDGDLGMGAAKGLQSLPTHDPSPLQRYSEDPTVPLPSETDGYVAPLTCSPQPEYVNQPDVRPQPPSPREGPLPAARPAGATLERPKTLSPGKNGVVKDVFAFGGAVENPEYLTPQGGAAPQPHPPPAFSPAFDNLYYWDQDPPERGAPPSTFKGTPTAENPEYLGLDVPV

BT-474 = experiment: Antiproliferative activity against human BT474 cells after 3 days by methylene blue staining; assay type: functional, cell-based; settings: BT-474, 72 h
NCI-N87 [3] = experiment: Antiproliferative activity against human NCI-N87 cells after 3 days by methylene blue staining; assay type: functional, cell-based; settings: NCI-N87, 72 h
[4] = molecular target: Platelet-derived growth factor receptor beta (Homo sapiens, UniProt P09619); experiment: Inhibition of PDGFRbeta
Sequence of Platelet-derived growth factor receptor beta (P09619 whole entry): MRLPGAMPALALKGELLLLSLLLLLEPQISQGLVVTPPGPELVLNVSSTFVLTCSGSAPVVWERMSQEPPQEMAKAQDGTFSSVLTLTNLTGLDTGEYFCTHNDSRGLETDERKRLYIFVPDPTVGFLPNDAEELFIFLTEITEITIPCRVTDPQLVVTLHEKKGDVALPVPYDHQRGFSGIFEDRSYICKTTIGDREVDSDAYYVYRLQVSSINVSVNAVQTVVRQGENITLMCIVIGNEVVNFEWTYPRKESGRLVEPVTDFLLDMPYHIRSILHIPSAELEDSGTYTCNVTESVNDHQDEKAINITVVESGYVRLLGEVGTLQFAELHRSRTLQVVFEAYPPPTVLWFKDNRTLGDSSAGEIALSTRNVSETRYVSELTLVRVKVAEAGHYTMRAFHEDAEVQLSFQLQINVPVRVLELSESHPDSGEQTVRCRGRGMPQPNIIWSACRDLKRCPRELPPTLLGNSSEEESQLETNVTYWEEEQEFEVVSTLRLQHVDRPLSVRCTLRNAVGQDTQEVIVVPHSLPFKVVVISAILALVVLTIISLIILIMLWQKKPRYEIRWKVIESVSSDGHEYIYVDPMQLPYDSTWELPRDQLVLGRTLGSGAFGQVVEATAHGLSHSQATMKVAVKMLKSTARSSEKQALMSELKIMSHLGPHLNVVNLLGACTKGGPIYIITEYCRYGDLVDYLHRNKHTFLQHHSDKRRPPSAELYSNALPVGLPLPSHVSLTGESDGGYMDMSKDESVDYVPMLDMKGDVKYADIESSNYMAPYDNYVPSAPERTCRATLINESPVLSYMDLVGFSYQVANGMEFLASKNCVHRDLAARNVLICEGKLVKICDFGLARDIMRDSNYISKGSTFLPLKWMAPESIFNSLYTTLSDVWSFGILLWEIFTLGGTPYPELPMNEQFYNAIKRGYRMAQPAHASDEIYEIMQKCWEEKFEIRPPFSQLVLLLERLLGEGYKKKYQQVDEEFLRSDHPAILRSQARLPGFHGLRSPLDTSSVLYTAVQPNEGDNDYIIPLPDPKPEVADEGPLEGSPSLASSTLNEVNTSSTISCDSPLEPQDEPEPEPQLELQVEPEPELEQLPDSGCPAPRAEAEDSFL

NCI-N87 [5] = experiment: Antitumor activity against human NCI-N87 cells xenografted in athymic mouse assessed as tumor volume at 80 mg/kg, po QD for 14 days measured after 19 days relative to control; assay type: functional
[6] = Metabolic stability of the compound in rat liver microsomes assessed as compound remaining after 30 mins; assay type: ADME, Microsome; settings: read-out: Stability
[7] = AUC in po dosed rat; assay type: ADME, organism-based; settings: plasma
NCI-N87 [8] = experiment: Antitumor activity against human NCI-N87 cells xenografted in athymic mouse assessed as tumor volume at 20 mg/kg, po QD for 14 days measured after 19 days relative to control; assay type: functional
[9] = molecular target: Vascular endothelial growth factor receptor 2 (Homo sapiens, UniProt P35968); experiment: Inhibition of VEGFR2
NCI-N87 [10] = experiment: Antitumor activity against human NCI-N87 cells xenografted in athymic mouse assessed as tumor growth inhibition at 80 mg/kg, po QD for 14 days measured after 19 days; assay type: functional, organism-based; parameters: dose 80 mg/kg
[11] = Metabolic stability of the compound in human liver microsomes assessed as compound remaining after 30 mins; assay type: ADME, Microsome; settings: read-out: Stability
NCI-N87 [12] = experiment: Antitumor activity against human NCI-N87 cells xenografted in athymic mouse assessed as tumor growth inhibition at 20 mg/kg, po QD for 14 days measured after 19 days; assay type: functional, organism-based; parameters: dose 20 mg/kg
[13] = Total clearance in iv dosed rat; assay type: ADME, organism-based; settings: in vivo
[14] = Aqueous solubility of the compound at pH 7.4; assay type: physicochemical
[15] = Oral bioavailability in rat; assay type: ADME, organism-based; settings: in vivo
Insulin receptor = Insulin receptor (Homo sapiens, UniProt P06213); experiment: Inhibition of INSR
Sequence of Insulin receptor (P06213 28-758 limits assumed): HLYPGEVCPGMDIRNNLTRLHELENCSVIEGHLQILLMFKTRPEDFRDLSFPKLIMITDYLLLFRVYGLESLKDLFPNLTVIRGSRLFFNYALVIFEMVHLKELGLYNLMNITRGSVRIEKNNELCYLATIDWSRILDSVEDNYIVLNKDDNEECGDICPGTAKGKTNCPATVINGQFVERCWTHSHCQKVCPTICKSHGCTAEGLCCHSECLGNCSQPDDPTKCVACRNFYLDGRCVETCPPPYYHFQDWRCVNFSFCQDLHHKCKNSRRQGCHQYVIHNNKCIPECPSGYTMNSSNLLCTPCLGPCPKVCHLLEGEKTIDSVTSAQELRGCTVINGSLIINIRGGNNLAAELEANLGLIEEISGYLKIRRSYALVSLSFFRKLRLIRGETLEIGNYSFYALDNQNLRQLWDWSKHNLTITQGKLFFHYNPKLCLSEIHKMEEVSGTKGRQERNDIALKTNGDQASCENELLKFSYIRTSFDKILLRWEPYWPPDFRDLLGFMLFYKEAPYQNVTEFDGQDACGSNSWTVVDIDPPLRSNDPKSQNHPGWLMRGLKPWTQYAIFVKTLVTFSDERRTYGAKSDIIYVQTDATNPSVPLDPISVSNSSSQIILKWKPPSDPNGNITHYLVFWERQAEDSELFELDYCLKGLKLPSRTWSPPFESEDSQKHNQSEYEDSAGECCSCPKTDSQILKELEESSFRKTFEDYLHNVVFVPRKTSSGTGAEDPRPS
Sequence of Insulin receptor (P06213 763-1382 limits assumed): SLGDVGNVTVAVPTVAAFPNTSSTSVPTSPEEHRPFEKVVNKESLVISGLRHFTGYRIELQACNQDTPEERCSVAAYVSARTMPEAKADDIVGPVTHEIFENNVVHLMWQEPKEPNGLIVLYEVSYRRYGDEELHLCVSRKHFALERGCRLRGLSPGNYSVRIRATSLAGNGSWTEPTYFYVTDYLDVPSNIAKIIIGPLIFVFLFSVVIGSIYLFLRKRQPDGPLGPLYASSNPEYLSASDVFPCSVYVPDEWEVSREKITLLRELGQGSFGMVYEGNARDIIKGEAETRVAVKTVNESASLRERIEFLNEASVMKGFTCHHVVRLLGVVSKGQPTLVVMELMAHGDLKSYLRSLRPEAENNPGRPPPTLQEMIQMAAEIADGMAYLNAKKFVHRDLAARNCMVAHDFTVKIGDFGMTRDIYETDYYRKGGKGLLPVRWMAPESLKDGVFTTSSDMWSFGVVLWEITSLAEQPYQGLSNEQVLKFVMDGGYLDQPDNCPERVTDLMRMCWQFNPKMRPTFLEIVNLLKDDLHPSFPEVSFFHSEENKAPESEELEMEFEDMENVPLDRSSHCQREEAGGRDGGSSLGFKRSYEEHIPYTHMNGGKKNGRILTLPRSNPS

Aurora kinase A = molecular target: T1, Aurora kinase A (Homo sapiens, UniProt O14965); experiment: Inhibition of Aurora A
T1 sequence (O14965 whole entry): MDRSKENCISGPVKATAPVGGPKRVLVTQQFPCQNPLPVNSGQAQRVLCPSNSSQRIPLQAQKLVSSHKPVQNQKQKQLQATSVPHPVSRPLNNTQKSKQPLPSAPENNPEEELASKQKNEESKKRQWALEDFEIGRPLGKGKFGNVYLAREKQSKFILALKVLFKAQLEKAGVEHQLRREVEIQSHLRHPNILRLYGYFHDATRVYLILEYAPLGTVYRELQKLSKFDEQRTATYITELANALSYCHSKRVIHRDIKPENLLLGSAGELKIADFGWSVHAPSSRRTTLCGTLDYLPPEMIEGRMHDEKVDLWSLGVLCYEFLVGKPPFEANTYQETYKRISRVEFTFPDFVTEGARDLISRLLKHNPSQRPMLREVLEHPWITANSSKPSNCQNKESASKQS

[16] = molecular target: Tyrosine-protein kinase Lck (Homo sapiens, UniProt P06239); experiment: Inhibition of Lck

SMILES	pIC50 [1]	pIC50 [2]	pIC50 (BT-474)	pIC50 (NCI-N87 [3])	other results
Cc1ncnc(Nc2ccc(OCc3cccc(F)c3)c(Cl)c2)c1/C=C/c1ccc(CNC(C)C)cc1	7.62	7.52	–	–	–
Cc1ncnc(Nc2ccc(OCc3cccc(F)c3)c(Cl)c2)c1C#Cc1ccccc1	6.19	6.12	–	–	–
CS(=O)(=O)CCNCc1ccc(-c2ccc3ncnc(Nc4ccc(OCc5cccc(F)c5)c(Cl)c4)c3c2)o1 [LAPATINIB]	–	–	7.00	7.05	–
Cc1ncnc(Nc2ccc(OCc3cccc(F)c3)c(Cl)c2)c1C#Cc1ccc(CN2CCCC2)o1	7.10	6.85	6.09	5.87	–
Cc1ncnc(Nc2ccc(OCc3cccc(F)c3)c(Cl)c2)c1C#Cc1ccc(CN2CCCC2)c(F)c1	6.72	7.21	7.30	7.22	pIC50 [4]: < 4.00; T/C (NCI-N87 [5]): 0.54; remaining at 0.5 h [6]: 63%; AUC [7]: 361 ng·h/mL; T/C (NCI-N87 [8]): 0.56; pIC50 [9]: < 4.00; growth inhibition (GI) (NCI-N87 [10]): Active; remaining at 0.5 h [11]: 24%; growth inhibition (GI) (NCI-N87 [12]): Active; clearance [13]: 18 mL/min/kg; solubility [14]: > 50 µM; bioavailability [15]: 35%; pIC50 (Insulin receptor): < 4.00; pIC50 (Aurora kinase A): < 4.00; pIC50 [16]: < 4.00
Cc1ncnc(Nc2ccc(OCc3cccc(F)c3)c(Cl)c2)c1C#Cc1ncc(CN2CCCC2)s1	7.13	6.96	–	–	–
Cc1ncnc(Nc2ccc(OCc3cccc(F)c3)c(Cl)c2)c1C#Cc1ccc(CNC(C)C)cc1	8.52	7.74	6.77	6.62	–
Cc1ncnc(Nc2ccc(OCc3cccc(F)c3)c(Cl)c2)c1C#Cc1ccc(CN2CCCC2)s1	7.52	6.74	6.39	6.16	–
Cc1ncnc(Nc2ccc(OCc3cccc(F)c3)c(Cl)c2)c1C#Cc1ccc(CN2CCCC2)cc1	8.05	7.39	–	–	–
CS(=O)(=O)CCNCc1ccc(-c2ccc3ncnc(Nc4ccc(OCc5cccc(F)c5)c(Cl)c4)c3c2)o1	–	–	–	–	growth inhibition (GI) (NCI-N87 [12]): Active
Cc1ncnc(Nc2ccc(OCc3cccc(F)c3)c(Cl)c2)c1/C=C/c1ccc(CNCCS(C)(=O)=O)cc1	–	6.92	6.19	6.11	–
Cc1ncnc(Nc2ccc(OCc3cccc(F)c3)c(Cl)c2)c1C#Cc1ccc(CN(C)C)cc1	8.15	7.39	–	–	–
CS(=O)(=O)CCNCc1ccc(-c2ccc3ncnc(Nc4ccc(OCc5cccc(F)c5)c(Cl)c4)c3c2)o1.Cc1ccc(S(=O)(=O)O)cc1.Cc1ccc(S(=O)(=O)O)cc1.O [LAPATINIB DITOSYLATE]	–	–	–	–	T/C (NCI-N87 [5]): 0.37; T/C (NCI-N87 [8]): 0.57
Cc1ncnc(Nc2ccc(OCc3cccc(F)c3)c(Cl)c2)c1/C=C/c1ccc(CNC2CC2)cc1	7.01	7.07	–	–	–
Cc1ncnc(Nc2ccc(OCc3cccc(F)c3)c(Cl)c2)c1C#Cc1cccc(CN(C)C)c1	7.26	7.14	–	–	–
Cc1ncnc(Nc2ccc(OCc3cccc(F)c3)c(Cl)c2)c1C#CCOc1ccc(CNC(C)C)cc1	7.07	6.89	–	–	–
Cc1ncnc(Nc2ccc(OCc3cccc(F)c3)c(Cl)c2)c1C#Cc1ccc(CNCCS(C)(=O)=O)cc1	7.66	6.66	–	–	–
